Experimental data from the NIST ThermoML archive (doi:10.1016/j.fluid.2008.03.009).

Conditions: Liquid, Vibrating tube method

CCCO [propan-1-ol]
Conditions	mass density [kg/m3]
298.15 K, 110 kPa	799.54
298.15 K, 5270 kPa	803.6
298.15 K, 9870 kPa	807.01
298.15 K, 14700 kPa	810.46
298.15 K, 20530 kPa	814.46
298.15 K, 25030 kPa	817.44
298.15 K, 30100 kPa	820.7
298.15 K, 35010 kPa	823.76
298.15 K, 39560 kPa	826.52
323.15 K, 590 kPa	779.78
323.15 K, 5940 kPa	784.71
323.15 K, 10600 kPa	788.81
323.15 K, 16000 kPa	793.2
323.15 K, 20640 kPa	796.73
323.15 K, 24880 kPa	799.83
323.15 K, 30800 kPa	803.99
323.15 K, 35220 kPa	807.01
323.15 K, 39790 kPa	810.02
348.15 K, 140 kPa	757.11
348.15 K, 5170 kPa	762.68
348.15 K, 10260 kPa	767.5
348.15 K, 15790 kPa	772.52
348.15 K, 20560 kPa	776.41
348.15 K, 24810 kPa	780.32
348.15 K, 29300 kPa	784.09
348.15 K, 35560 kPa	789.01
348.15 K, 39950 kPa	792.23
373.15 K, 360 kPa	733.24
373.15 K, 5480 kPa	739.29
373.15 K, 10290 kPa	745.11
373.15 K, 15700 kPa	750.9
373.15 K, 19960 kPa	755.19
373.15 K, 25170 kPa	760.17
373.15 K, 30510 kPa	765.02
373.15 K, 35920 kPa	769.7
373.15 K, 39780 kPa	772.91
398.15 K, 620 kPa	705.55
398.15 K, 5670 kPa	713.23
398.15 K, 10620 kPa	720.1
398.15 K, 15580 kPa	726.46
398.15 K, 20350 kPa	732.35
398.15 K, 25090 kPa	737.77
398.15 K, 31150 kPa	744.07
398.15 K, 35410 kPa	748.41
398.15 K, 39390 kPa	752.32
423.15 K, 1570 kPa	674.63
423.15 K, 5870 kPa	682.79
423.15 K, 10160 kPa	690.93
423.15 K, 15320 kPa	699.32
423.15 K, 20500 kPa	707.2
423.15 K, 26280 kPa	715.01
423.15 K, 31600 kPa	721.36
423.15 K, 35780 kPa	726.03
423.15 K, 39700 kPa	730.17
